Six compounds from ChEMBL document CHEMBL1909046, “DrugMatrix in vitro pharmacology data” can be followed below.

Series [1] can be described thus: DRUGMATRIX: Phosphodiesterase PDE3 enzyme inhibition (substrate: [3H]cAMP + cAMP). Conditions: platelet; Not Active = under 50% inhibition at 10 µM. The class given is tissue-based, Homo sapiens.
Series [2] concerns the target T1, Type-2 angiotensin II receptor (Homo sapiens, UniProt P50052). Also: in other assays of this panel Not Active means under 50% inhibition at 10 µM.
T1 sequence (P50052 whole entry): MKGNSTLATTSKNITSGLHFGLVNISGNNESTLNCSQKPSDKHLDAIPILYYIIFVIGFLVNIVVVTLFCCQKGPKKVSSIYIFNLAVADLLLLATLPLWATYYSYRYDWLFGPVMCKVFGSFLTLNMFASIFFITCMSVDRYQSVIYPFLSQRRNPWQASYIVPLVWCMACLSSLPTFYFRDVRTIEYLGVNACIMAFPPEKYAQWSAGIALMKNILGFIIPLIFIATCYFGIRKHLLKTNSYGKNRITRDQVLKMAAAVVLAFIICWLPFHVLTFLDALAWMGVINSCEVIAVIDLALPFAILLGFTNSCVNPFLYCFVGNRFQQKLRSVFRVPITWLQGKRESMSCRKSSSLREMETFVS
The class given is cell-based. Conditions: cho-k1.

A short description of series [3]: DRUGMATRIX: Purinergic P2X radioligand binding (ligand: [3H] alpha, beta-Methylene-ATP). The class given is cell membranes, Oryctolagus cuniculus, New Zealand albino, Urinary bladder, Membrane. As to conditions: Not Active = under 50% inhibition at 10 µM.
Series [4] has as its target 5-hydroxytryptamine receptor 2B (Homo sapiens, UniProt P41595). The class given is cell membranes, CHO-K1, Membrane. Conditions: for Ki: read-out: Ki. As to all read-outs here: in other assays of this panel Not Active means under 50% inhibition at 10 µM.
Another series addresses Histamine H2 receptor (Homo sapiens, UniProt P25021). The class given is cell membranes, CHO-K1, Membrane. Conditions: cho-k1.
Series [5] in a line: DRUGMATRIX: Interleukin IL-1 radioligand binding (ligand: [125I] interleukin 1beta). In kind it is cell membranes, Membrane. As to conditions: nih3t3; Not Active = under 50% inhibition at 10 µM.
Another series concerns the target T2, Cytochrome P450 2A6 (Homo sapiens, UniProt P11509). Also: in other assays of this panel Not Active means under 50% inhibition at 10 µM.
T2 sequence (P11509 whole entry): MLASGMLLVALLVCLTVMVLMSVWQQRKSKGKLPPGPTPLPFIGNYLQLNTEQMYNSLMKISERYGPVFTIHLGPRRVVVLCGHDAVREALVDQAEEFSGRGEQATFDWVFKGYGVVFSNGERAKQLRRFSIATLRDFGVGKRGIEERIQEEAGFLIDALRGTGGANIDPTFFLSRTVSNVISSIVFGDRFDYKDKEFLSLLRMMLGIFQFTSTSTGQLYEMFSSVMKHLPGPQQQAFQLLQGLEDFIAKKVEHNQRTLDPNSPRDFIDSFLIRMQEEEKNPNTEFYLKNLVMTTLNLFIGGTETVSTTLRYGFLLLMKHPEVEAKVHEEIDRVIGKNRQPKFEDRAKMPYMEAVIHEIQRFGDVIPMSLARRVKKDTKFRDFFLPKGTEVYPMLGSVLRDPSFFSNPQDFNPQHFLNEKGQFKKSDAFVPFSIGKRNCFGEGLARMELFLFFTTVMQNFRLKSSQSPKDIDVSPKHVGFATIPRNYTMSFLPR
Conditions: bti-tn-5b1-4.

The nature of series [6]: DRUGMATRIX: Glutamate, NMDA, Agonism radioligand binding (ligand: [3H] CGP-39653). The class given is cell membranes, Rattus norvegicus, Wistar, Cerebral cortex, Membrane. As to conditions: Not Active = under 50% inhibition at 10 µM.
Another series deals with Substance-P receptor (Homo sapiens, UniProt P25103). In kind it is cell membranes, CHO, Membrane. As to conditions: cho.
Series [7] concerns the target T3, Receptor-type tyrosine-protein phosphatase C (Homo sapiens, UniProt P08575).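 Also: inhibition of CD45 enzyme activity measured using DiFMUP as substrate; in other assays of this panel Not Active means under 50% inhibition at 10 µM.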
T3 sequence (P08575 whole entry): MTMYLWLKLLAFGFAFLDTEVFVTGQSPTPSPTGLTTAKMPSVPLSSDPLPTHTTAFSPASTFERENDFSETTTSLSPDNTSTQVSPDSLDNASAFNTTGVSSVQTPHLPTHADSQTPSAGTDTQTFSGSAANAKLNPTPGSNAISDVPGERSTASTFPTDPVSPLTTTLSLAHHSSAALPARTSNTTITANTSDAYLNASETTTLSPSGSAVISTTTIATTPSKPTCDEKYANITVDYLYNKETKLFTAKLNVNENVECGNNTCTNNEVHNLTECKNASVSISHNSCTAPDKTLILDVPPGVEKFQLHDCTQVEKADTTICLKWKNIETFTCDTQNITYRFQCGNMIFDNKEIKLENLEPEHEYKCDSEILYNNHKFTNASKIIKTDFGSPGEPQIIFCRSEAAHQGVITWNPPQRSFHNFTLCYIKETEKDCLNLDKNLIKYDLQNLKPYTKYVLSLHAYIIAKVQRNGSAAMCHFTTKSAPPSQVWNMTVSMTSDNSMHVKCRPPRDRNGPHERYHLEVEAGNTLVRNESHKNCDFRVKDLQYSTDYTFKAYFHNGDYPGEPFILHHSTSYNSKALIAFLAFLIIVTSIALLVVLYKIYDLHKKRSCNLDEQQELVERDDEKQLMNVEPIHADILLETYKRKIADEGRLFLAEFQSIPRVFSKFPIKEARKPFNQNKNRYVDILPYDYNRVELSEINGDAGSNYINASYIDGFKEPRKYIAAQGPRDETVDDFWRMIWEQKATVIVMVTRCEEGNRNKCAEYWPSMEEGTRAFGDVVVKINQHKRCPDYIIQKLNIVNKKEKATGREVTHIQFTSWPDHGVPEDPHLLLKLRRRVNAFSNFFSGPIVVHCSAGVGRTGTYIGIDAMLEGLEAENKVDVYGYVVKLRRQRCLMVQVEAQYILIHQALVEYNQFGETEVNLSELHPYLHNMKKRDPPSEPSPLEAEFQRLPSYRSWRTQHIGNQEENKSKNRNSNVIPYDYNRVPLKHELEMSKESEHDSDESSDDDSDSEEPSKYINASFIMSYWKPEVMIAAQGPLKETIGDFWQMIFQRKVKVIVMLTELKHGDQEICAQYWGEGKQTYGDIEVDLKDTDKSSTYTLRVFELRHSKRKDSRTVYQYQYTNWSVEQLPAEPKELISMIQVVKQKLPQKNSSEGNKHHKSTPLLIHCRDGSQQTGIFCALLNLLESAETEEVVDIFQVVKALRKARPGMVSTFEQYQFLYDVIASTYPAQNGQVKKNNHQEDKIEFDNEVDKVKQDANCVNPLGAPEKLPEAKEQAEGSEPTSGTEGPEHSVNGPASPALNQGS
The arrangement: species or system Escherichia coli.

Another series concerns the target T4, Leukotriene C4 synthase (Cavia porcellus, UniProt A6XA80).
T4 sequence (A6XA80 whole entry): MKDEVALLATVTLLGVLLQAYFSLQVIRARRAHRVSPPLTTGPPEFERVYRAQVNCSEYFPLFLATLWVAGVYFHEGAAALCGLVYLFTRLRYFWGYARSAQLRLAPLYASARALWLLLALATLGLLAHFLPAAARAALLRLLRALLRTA
Kind of series: biochemical. The class given is tissue-based, Lung.

Chain of Histamine H2 receptor (P25021 whole entry): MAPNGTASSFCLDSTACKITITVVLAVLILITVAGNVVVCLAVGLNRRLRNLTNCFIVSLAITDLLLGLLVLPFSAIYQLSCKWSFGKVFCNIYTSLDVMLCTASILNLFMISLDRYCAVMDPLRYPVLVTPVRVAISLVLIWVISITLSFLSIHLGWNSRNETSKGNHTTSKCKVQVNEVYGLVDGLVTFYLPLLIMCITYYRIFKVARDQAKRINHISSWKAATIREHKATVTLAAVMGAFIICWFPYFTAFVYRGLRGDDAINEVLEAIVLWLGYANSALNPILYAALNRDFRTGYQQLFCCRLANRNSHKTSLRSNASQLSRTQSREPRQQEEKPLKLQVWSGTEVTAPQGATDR
Chain of Substance-P receptor (P25103 whole entry): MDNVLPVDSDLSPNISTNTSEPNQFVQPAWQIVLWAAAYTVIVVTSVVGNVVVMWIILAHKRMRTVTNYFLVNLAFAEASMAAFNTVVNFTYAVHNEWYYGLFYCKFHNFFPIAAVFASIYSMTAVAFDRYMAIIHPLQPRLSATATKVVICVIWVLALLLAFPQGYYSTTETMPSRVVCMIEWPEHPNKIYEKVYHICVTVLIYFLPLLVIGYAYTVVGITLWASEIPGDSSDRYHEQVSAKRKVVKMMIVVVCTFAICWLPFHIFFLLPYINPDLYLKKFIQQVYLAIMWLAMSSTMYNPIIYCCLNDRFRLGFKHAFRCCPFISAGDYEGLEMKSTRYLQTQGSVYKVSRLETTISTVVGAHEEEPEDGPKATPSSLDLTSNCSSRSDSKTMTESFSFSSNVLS
Chain of 5-hydroxytryptamine receptor 2B (P41595 whole entry): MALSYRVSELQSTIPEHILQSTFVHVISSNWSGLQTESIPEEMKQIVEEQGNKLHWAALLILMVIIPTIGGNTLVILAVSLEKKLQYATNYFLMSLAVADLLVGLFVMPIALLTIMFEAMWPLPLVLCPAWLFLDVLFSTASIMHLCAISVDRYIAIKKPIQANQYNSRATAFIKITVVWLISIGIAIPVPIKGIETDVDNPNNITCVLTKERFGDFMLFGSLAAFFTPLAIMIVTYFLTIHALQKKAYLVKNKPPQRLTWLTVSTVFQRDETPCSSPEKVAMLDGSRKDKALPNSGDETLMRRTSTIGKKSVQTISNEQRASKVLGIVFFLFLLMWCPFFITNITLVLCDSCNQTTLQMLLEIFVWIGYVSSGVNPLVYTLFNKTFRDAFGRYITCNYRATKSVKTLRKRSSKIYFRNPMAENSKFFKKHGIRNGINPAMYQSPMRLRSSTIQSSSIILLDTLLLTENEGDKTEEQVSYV

Regarding `CC1=C(/C=C/C(C)=C/C=C/C(C)=C\C(=O)O)C(C)(C)CCC1` [ISOTRETINOIN], the IC50 entry in series [1] is “Not Active”; in series [2], “Not Active”; in series [3], “Not Active”; in series [4] (read-out: IC50), 0.848 µM; against Histamine H2 receptor it was “Not Active”; in series [5], “Not Active”. The half-inhibitory concentration (IC50) entry (at Cytochrome P450 2A6; in [6]; at Substance-P receptor; in [7]; on Leukotriene C4 synthase) was “Not Active” each time. The Ki result in [1] is “Not Active”; in series [3], “Not Active”; in [4], 0.54 µM; in series [5], “Not Active”; on Cytochrome P450 2A6, “Not Active”; in series [6] it was “Not Active”.

`CO[C@@H]1[C@@H](O[C@@H]2O[C@H](C)[C@@H](O[C@H]3C[C@@](C)(O)[C@@H](OC(=O)CC(C)C)[C@H](C)O3)[C@H](N(C)C)[C@H]2O)[C@@H](CC=O)C[C@@H](C)[C@@H](O)/C=C/C=C/C[C@@H](C)OC(=O)C[C@H]1O` [KITASAMYCIN]: the half-maximal inhibitory concentration (IC50) result (in [1]; in series [2]; in series [3]; in series [4] (cho-k1); against Histamine H2 receptor; in [5]) was “Not Active” each time. Also, the IC50 result (against Cytochrome P450 2A6; in series [6]; against Substance-P receptor; in [7]; on Leukotriene C4 synthase) was “Not Active” throughout. In addition, the Ki result (in series [1]; in [3]; in series [5]; at Cytochrome P450 2A6; in [6]) was “Not Active” throughout.

Take `CC(CCc1ccccc1)NCC(O)c1ccc(O)c(C(N)=O)c1` (stereo not drawn) [LABETALOL]: the IC50 result in series [1] was “Not Active”; in series [2], “Not Active”; in series [3], “Not Active”; in series [4] (read-out: IC50), 3.04 µM; against Histamine H2 receptor, “Not Active”; in [5], “Not Active”. Also, the IC50 entry (against Cytochrome P450 2A6; in [6]; on Substance-P receptor; in series [7]; at Leukotriene C4 synthase) was “Not Active” each time. Moreover, the Ki result in series [1] is “Not Active”; in series [3], “Not Active”; in series [4] it was 1.93 µM; in series [5] it was “Not Active”; on Cytochrome P450 2A6, “Not Active”; in [6], “Not Active”.

On to `Nc1nnc(-c2cccc(Cl)c2Cl)c(N)n1` [LAMOTRIGINE], for which the IC50 entry (in series [1]; in series [2]; in series [3]; in series [4] (cho-k1); on Histamine H2 receptor; in series [5]) was “Not Active” in each case. The IC50 entry (on Cytochrome P450 2A6; in series [6]; on Substance-P receptor; in series [7]; against Leukotriene C4 synthase) was “Not Active” in each case. In addition, the Ki entry (in series [1]; in series [3]; in [5]; on Cytochrome P450 2A6; in series [6]) was “Not Active” throughout.

On to `CCC[C@@H]1C[C@@H](C(=O)N[C@@H]([C@H]2O[C@H](SC)[C@H](O)[C@@H](O)[C@H]2O)[C@@H](C)O)N(C)C1` [LINCOMYCIN], for which the IC50 entry (in [1]; in series [2]; in [3]; in [4] (cho-k1); at Histamine H2 receptor; in series [5]) was “Not Active” throughout. The IC50 result (against Cytochrome P450 2A6; in series [6]; against Substance-P receptor; in [7]; against Leukotriene C4 synthase) was “Not Active” each time. Moreover, the Ki entry (in [1]; in series [3]; in [5]; at Cytochrome P450 2A6; in series [6]) was “Not Active” throughout.

`NCCCC[C@H](N[C@@H](CCc1ccccc1)C(=O)O)C(=O)N1CCC[C@H]1C(=O)O` [LISINOPRIL ANHYDROUS]: the IC50 result (in [1]; in [2]; in series [3]; in [4] (cho-k1); on Histamine H2 receptor; in [5]) was “Not Active” each time. In addition, the IC50 entry (at Cytochrome P450 2A6; in series [6]; at Substance-P receptor; in series [7]; at Leukotriene C4 synthase) was “Not Active” each time. For the same compound, the Ki result (in series [1]; in series [3]; in series [5]; at Cytochrome P450 2A6; in series [6]) was “Not Active” throughout.

The IC50 is the point on the concentration scale where inhibition reaches its midpoint. Usually Ki stands for the dissociation constant of the complex between target and ligand, obtained from inhibition or displacement.
